{"source": "patent US20150335678A1", "about": "“METHOD OF ACTIVATING STEM CELLS IN AN ANIMAL AND THE USE OF CHLORINE DIOXIDE FOR PREPARING MEDICINES FOR ACTIVATING STEM CELLS IN AN ANIMAL” (priority 2012, published 2015)", "key": {"[1]": {"system": "CD34-positive/CD31-positive mononuclear cells", "experiment": "CD34-positive/CD31-positive mononuclear cells in peripheral blood of lower limb DVT patients, flow cytometry", "type": "in vivo, human", "conditions": "before administration 0.28 ± 0.30, diluted solution 10 ml/body/day femoral artery puncture, 14 days", "text": "The subjects consisted of 14 male and 6 female lower limb DVT patients with the unilateral limb suffer from the illness, aged from 59 to 76 years old (average age: 67.2 years old). The purpose of the clinical test was explained to all subjects and their consent was obtained before conducting the clinical test.\nThe first solution was a mixed solution made of sodium chlorite with the concentration of 7.47% and sodium chloride with the concentration of 1.59% with deionized water; the second solution was made of citric acid with the concentration of 16.7% with deionized water. Same volume of solutions were taken out from different vessels with different volumes and mixed up. […]\nFive ml of peripheral blood was collected from the median cubital vein of the forearm of each patient using low molecular weight heparin anticoagulant before administration (before initial administration) and on day 7 and 14 after administration, and the collected blood was immediately stored at 4° C. and measured within 6 hours after collection. […]\nCD34-positive mononuclear cells/CD31-positive mononuclear cells were isolated by double immunofluorescent using flow cytometry. […] Next, CD34/CD31-positive mononuclear cells were isolated and counted by flow cytometry. The ratio (%) of CD34/CD 31-positive mononuclear cells among the mononuclear cells was calculated according to the following formula. […]"}, "[2]": {"system": "nestin-positive cells (neural stem cells)", "experiment": "Nestin-positive cells in the SVZ region, immunohistochemical stain", "type": "in vivo, Sprague-Dawley rats", "conditions": "for number of nestin-positive cells in the SVZ region (mean±SD): diluted solution via carotid artery once a day, ten days", "experimental": "(§1) Male Sprague-Dawley rats with the age of 12 weeks and weight of 250^˜280 g were used in the experiment after acclimating for a week.\n(§2) A middle cerebral artery occlusion model was first established in compliance with the method of Longa E Z et al. (Longa E Z, et al. Reversible middle cerebral artery occlusion without craniectomy in rats. Stroke 20:84-91, 1989). More specifically, 0.36 g/kg of 10% chloral hydrate was administered intraperitoneally to rats which had been fasted for 12 hours (although given free access to water) to anesthetize the rats. Next, a midline incision was made in the neck to expose the right common carotid artery. Then, the internal carotid artery and external carotid artery were separated, the posterior carotid artery, which is a branch of the external carotid artery, and the thyroidea arteria were coagulated and severed, the external carotid artery was ligated at the branch of the lingual artery and maxillary artery, a small puncture was formed in the external carotid artery, 4-0 Nylon suture was passed through the common carotid artery from the puncture, and gradually inserted into the internal carotid artery until there was resistance. The length of the Nylon suture was about 18^˜20 mm from the branch of the common carotid artery. As a result of occluding the middle cerebral artery with Nylon suture, an ischemic state was applied for 2 hours to create a middle cerebral artery occlusion model.\n(§3) A cerebral ischemia/reperfusion injury model was established by removing the Nylon suture from the middle cerebral artery of the occlusion model and following reperfusion of blood.\n(§4) The first solution was a mixed solution made of sodium chlorite with the concentration of 7.47% and sodium chloride with the concentration of 1.59% with deionized water; the second solution was made of citric acid with the concentration of 16.7% with deionized water. Same volume of solutions were taken out from different vessels with different volumes and mixed up. Allow the solution to mix for 3-5 minutes and dilute it five times with normal saline, and then filter it with 0.22 μm filter membrane of double-deck. The solution was immediately put into injector. The solution was prepared once being used.\n(§5) Treatment group (120 rats): A cerebral ischemia/reperfusion injury model was established for the rats already. To administer chlorine dioxide solution everytime that prepared from procedure (3) through carotid artery after the second day the model has established, once a day for total ten days.\nTen rats of each group were autopsied on day 7, 14 and 21 after the model established, respectively (total animals are 30 rats from each group). After preparation of tissue specimens, the neural stem cells were counted under a microscope.\nMore specifically, rat frozen brain sections were prepared on day 7, 14 and 21 after the model established, and the presence of nestin-positive cells in the subventricular zone (SVZ) was measured by immunohistochemical stain using the marker of nestin expressed on the neural stem cells. The presence of nestin-positive cells was analyzed using mouse anti-rat nestin monoclonal antibody.\n(§6) BRt(%)=(Bt−St)/(Mt−St)×100"}, "[3]": {"system": "BrdU-positive (migrating) cells", "experiment": "BrdU-positive (migrating) cells in the SVZ region", "type": "in vivo, Sprague-Dawley rats", "conditions": "for number of BrdU-positive cells in the SVZ region, migration (mean±SD): BrdU twice within 24 hours after model established", "experimental": "as §1, §2, §3, §4, §5\nThirty Rats in each group were intraperitoneally injected twice with 50 mg/kg of BrdU within 24 hours after model established. The rats were autopsied on day 7, 14 and 21 after model established for preparation of frozen brain sections. The presence of BrdU-positive cells in the SVZ region was analyzed by immunochemical stain using mouse anti-rat BrdU monoclonal antibody.\nas §6"}, "alopecia areata": {"system": "alopecia areata", "experiment": "Alopecia areata patients, topical solution with dimethyl sulfoxide (Example 4)", "type": "in vivo, human", "experimental": "The first solution was a mixed solution made of sodium chlorite with the concentration of 7.47% and sodium chloride with the concentration of 1.59% with deionized water; the second solution was made of citric acid with the concentration of 16.7% with deionized water.\nSame volume of solutions were taken out from different vessels with different volumes and put into the suitable glass or plastic cups prepared. Allow the solution to mix for 3-5 minutes and then filter the solution with 0.22 μm filter membrane of double-deck, dimethyl sulfoxide was added in a ratio of 1:1, and then smear solution over the alopecia areata with the swab, waiting for 1-2 hours before cleaning the head, the drug was administered once a day according to the method. The first period lasted for 15-25 days, then the drug was stopped for 2-5 months; The second period lasted for 15-25 days in the light of the situation.\nThe subjects consisted of 11 male alopecia areata patients and a patient (the patients are between 22-40 years old.) They administered the activating agent of stem cell as volunteers, see Table 12."}, "scar": {"system": "scar", "experiment": "Patients with scar, topical solution with dimethyl sulfoxide (Example 13)", "type": "in vivo, human", "conditions": "20 patients with scar", "description": "The subjects consisted of 20 patients with scar, including 7 male and 13 female (average age: 33 years old.) There are five cases with burn scar, 7 cases with scars resulting from accidental injury, 5 cases with surgical scar, 3 cases with scar from skin disease. The average course of disease is about 3 years.\nThen the solution was immediately smeared over the scar, once a day for 10-15 days consecutively then stops administration. The second administration began 1-2 months after drug withdrawal of the first administration, once a day for consecutive 5-10 days.\nTo observe the effects a month after first administration and second administration. The effects were measured according to pain, stiffness and hyperpigmentation around.\nspecific criteria: obvious pain (+++), moderate pain (++), mild pain (+) no pain (−). stiffness of scar: can't sunken with hard pressing, (+++) can sunken with moderate pressing, (++), complete depression with mild pressing (+). Same character with normal skin (−). hyperpigmentation around: >2 cm, (+++), 1˜2 cm (++), <1 cm (+), 0 (−)\nMeasurement of clinical effect: excellent: no pain, and the stiffness is the same to normal skin with no hyperpigmentation around. effective: the indicators of pain, stiffness and hyperpigmentation are (+)˜(++); ineffective: one of the indicators of pain, stiffness and hyperpigmentation is (+++)."}, "wound": {"system": "wound", "conditions": "clinical trial report No. NCT01341041, Rhode Island Hospital; cited from earlier work"}, "[4]": {"conditions": "a month after first administration"}, "[5]": {"conditions": "a month after second administration"}}}
{"smiles": "[O][Cl+][O-]", "note": "[chlorine dioxide solution, chlorine dioxide]", "values": [{"measurement": "CD34-Positive/CD31-Positive Mononuclear Cells (ratio among mononuclear cells, mean±SD)", "setting": "[1]; Day 7 after administration, n=20", "value": "0.85 ± 0.51", "unit": "%"}, {"measurement": "CD34-Positive/CD31-Positive Mononuclear Cells (ratio among mononuclear cells, mean±SD)", "setting": "[1]; Day 14 after administration, n=15", "value": "1.1 ± 0.65", "unit": "%"}, {"measurement": "BRt: nestin-positive cells in treatment group relative to model group = 100%, (Bt-St)/(Mt-St)x100", "setting": "[2]; Day 7", "value": 157.4, "unit": "%"}, {"measurement": "number of nestin-positive cells in the SVZ region (mean±SD)", "setting": "[2]; Day 7 after model established, model group 210.5 ± 22.3, sham 45.6 ± 5.69", "value": "305.2 ± 30.6", "unit": "No. cells/mm2"}, {"measurement": "BRt: nestin-positive cells in treatment group relative to model group = 100%, (Bt-St)/(Mt-St)x100", "setting": "[2]; Day 14", "value": 150.2, "unit": "%"}, {"measurement": "number of nestin-positive cells in the SVZ region (mean±SD)", "setting": "[2]; Day 14, model group 74.5 ± 13.4, sham 13.2 ± 1.64", "value": "105.3 ± 15.4", "unit": "No. cells/mm2"}, {"measurement": "BRt: nestin-positive cells in treatment group relative to model group = 100%, (Bt-St)/(Mt-St)x100", "setting": "[2]; Day 21", "value": 138.5, "unit": "%"}, {"measurement": "number of nestin-positive cells in the SVZ region (mean±SD)", "setting": "[2]; Day 21, model group 46.2 ± 6.31, sham 1.99 ± 1.09", "value": "63.2 ± 7.55", "unit": "No. cells/mm2"}, {"measurement": "BRt: BrdU-positive (migrating) cells in treatment group relative to model group = 100%", "setting": "[3]; Day 7", "value": 121.0, "unit": "%"}, {"measurement": "number of BrdU-positive cells in the SVZ region, migration (mean±SD)", "setting": "[3]; Day 7, model group 136.56 ± 15.63, sham 2.85 ± 1.05, diluted solution via carotid artery once a day, ten days", "value": "164.61 ± 16.3", "unit": "No. cells/mm2"}, {"measurement": "BRt: BrdU-positive (migrating) cells in treatment group relative to model group = 100%", "setting": "[3]; Day 14", "value": 144.7, "unit": "%"}, {"measurement": "number of BrdU-positive cells in the SVZ region, migration (mean±SD)", "setting": "[3]; Day 14, model group 78.6 ± 8.5, sham 3.39 ± 1.35", "value": "112.2 ± 10.6", "unit": "No. cells/mm2"}, {"measurement": "BRt: BrdU-positive (migrating) cells in treatment group relative to model group = 100%", "setting": "[3]; Day 21", "value": 227.1, "unit": "%"}, {"measurement": "number of BrdU-positive cells in the SVZ region, migration (mean±SD)", "setting": "[3]; Day 21, model group 34.9 ± 5.48, sham 3.11 ± 1.05", "value": "75.3 ± 8.39", "unit": "No. cells/mm2"}, {"measurement": "distribution of BrdU-positive cells in SVZ region", "setting": "[3]; treatment group, in model group only on the surface of the SVZ region", "value": "widely distributed from the surface to interior of the SVZ region"}, {"measurement": "time until new hair equably grew, second period of administration", "setting": "alopecia areata; course of disease more than 12 months, 7 patients", "value": "equably grow 3-5 days."}, {"measurement": "time until new hair grew along the alopecia areata area, first period of administration", "setting": "alopecia areata; course of disease more than 12 months, 7 patients, NaClO2 7.47% + citric acid 16.7% 1:1, DMSO 1:1, smeared once a day", "value": "3-5 days after"}, {"measurement": "time until new hair grew, second period of administration", "setting": "alopecia areata; course of disease within 12 months, 5 patients", "value": "3-5 days after"}, {"measurement": "time until new hair grew, first period of administration", "setting": "alopecia areata; course of disease within 12 months, 5 patients, NaClO2 7.47% + citric acid 16.7% 1:1, DMSO 1:1, smeared once a day 15-25 days", "value": "3-5 days after"}, {"measurement": "hair fell off, second period of administration", "setting": "alopecia areata; course of disease within 12 months, 5 patients, second period 15-25 days after 2-5 months off", "value": "About 50% of hair fell"}, {"measurement": "ineffective (%)", "setting": "scar; [4]", "value": 25, "unit": "%"}, {"measurement": "ineffective (No.)", "setting": "scar; [4]", "value": 5}, {"measurement": "total efficiency (%)", "setting": "scar; [4]", "value": 30, "unit": "%"}, {"measurement": "total efficiency (No.)", "setting": "scar; [4]", "value": 6}, {"measurement": "Efficiency rate (No.)", "setting": "scar; a month after first administration, NaClO2 10%/NaCl 2.5% + citric acid 20% 1:1, DMSO 1:1, smeared once a day 10-15 days", "value": 9}, {"measurement": "Efficiency rate (%)", "setting": "scar; a month after first administration, topical with DMSO", "value": 45, "unit": "%"}, {"measurement": "Efficiency rate (No.)", "setting": "scar; a month after second administration (once a day 5-10 days, 1-2 months after the first)", "value": 15}, {"measurement": "Efficiency rate (%)", "setting": "scar; [5]", "value": 75, "unit": "%"}, {"measurement": "ineffective (No.)", "setting": "scar; [5]", "value": 0}, {"measurement": "total efficiency (%)", "setting": "scar; [5]", "value": 25, "unit": "%"}, {"measurement": "total efficiency (No.)", "setting": "scar; [5]", "value": 5}, {"measurement": "effects compared with normal saline in wound irrigation", "setting": "wound", "value": "promote healing and reduce scar formation"}]}
